Measured values taken from publication PMC9090415, “Discovery of small molecule inhibitors of Plasmodium falciparum apicoplast DNA polymerase” (Journal of Enzyme Inhibition and Medicinal Chemistry, 2022).

Target: P. falciparum apicoplast DNA polymerase (Pf-apPOL) (Plasmodium falciparum, UniProt Q8ILY1)
Test: Fluorescence-based high-throughput DNA polymerase assay (molecular beacon), primary screen and dose-response
Type: biochemical
Conditions: for DNA Pol: 90 min, 10 µM; for % inhibition apPOL 180' 2.5 / % inhibition apPOL 180' 5 / % inhibition apPOL 180' 10 / % inhibition apPOL 180' 20 / % inhibition apPOL 180' 40 / % inhibition apPOL 180' 80: read at 180'
In short: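 Single-point screening used 10 µM compound with 20 nM polymerase, 20 nM hairpin substrate and 6 µM dNTPs for 90 min at 25 °C. Confirmatory titrations (2.5–80 µM) followed fluorescence at three times, and IC50 was derived from a fit including a cooperativity term n.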

[1] = first dose-response, concentration 40

P. falciparum apicoplast DNA polymerase (Pf-apPOL), sequence (Q8ILY1 entry or part of it): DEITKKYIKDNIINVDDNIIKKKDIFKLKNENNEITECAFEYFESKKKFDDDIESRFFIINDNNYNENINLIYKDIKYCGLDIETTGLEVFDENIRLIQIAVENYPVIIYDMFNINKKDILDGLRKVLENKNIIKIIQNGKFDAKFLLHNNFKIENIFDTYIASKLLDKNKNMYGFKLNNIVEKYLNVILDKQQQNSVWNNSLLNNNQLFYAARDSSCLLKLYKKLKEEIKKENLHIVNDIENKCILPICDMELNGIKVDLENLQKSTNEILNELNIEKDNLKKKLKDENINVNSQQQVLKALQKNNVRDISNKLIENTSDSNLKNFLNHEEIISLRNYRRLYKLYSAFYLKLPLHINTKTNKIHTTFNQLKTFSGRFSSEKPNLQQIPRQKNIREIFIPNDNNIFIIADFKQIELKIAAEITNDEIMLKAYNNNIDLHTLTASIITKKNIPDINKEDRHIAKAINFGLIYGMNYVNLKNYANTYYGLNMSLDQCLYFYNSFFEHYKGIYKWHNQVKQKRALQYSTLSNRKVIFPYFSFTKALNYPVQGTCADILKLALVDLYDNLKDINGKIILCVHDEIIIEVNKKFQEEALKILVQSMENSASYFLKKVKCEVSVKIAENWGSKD

Cn1nc(-c2nnc(-c3ccccc3F)o2)c2c1CCN(C(=O)c1ccccc1Cl)C2 [Molecule 34, Cn1nc(c2c1CCN(C2)C(=O)c1ccccc1Cl)c1nnc(o1)c1ccccc1F]
DNA Pol (186 hits, DNA Pol (screen value), unit not given): 48
DNA Pol ('DNA Pol' (screen value), unit not given): 48
% inhibition Apo pol 10' 2.5 (DRC-1, read at 10', concentration 2.5): 33%
% inhibition Apo pol 10' 5 (DRC-1, read at 10', concentration 5): 44%
% inhibition Apo pol 10' 10 (DRC-1, read at 10', concentration 10): 52%
% inhibition Apo pol 10' 20 (DRC-1, read at 10', concentration 20): 58%
% inhibition Apo pol 10' 40 (DRC-1, read at 10', concentration 40): 59%
% inhibition Apo pol 10' 80 (DRC-1, read at 10', concentration 80): 63%
% inhibition Apol 90' 2.5 (DRC-1, read at 90', concentration 2.5): 23%
% inhibition Apol 90' 5 (DRC-1, read at 90', concentration 5): 35%
% inhibition Apol 90' 10 (DRC-1, read at 90', concentration 10): 46%
% inhibition Apol 90' 20 (DRC-1, read at 90', concentration 20): 54%
% inhibition Apol 90' 40 (DRC-1, read at 90', concentration 40): 59%
% inhibition Apol 90' 80 (DRC-1, read at 90', concentration 80): 65%
% inhibition apPOL 180' 2.5 (DRC-1, concentration 2.5): 17%
% inhibition apPOL 180' 5 (DRC-1, concentration 5): 28%
% inhibition apPOL 180' 10 (DRC-1, concentration 10): 41%
% inhibition apPOL 180' 20 (DRC-1, concentration 20): 50%
% inhibition apPOL 180' 40 (DRC-1, concentration 40): 58%
% inhibition apPOL 180' 80 (DRC-1, concentration 80): 64%
% inhibition Apo pol 5' (DRC-2, concentration 2.5): 20%
% inhibition Apo pol 5' (DRC-2, concentration 5): 20%
% inhibition Apo pol 5' (DRC-2, concentration 80): 39%
% inhibition Apol 40' (DRC-2, concentration 2.5): 22%
% inhibition Apol 40' (DRC-2, concentration 5): 27%
% inhibition Apol 40' (DRC-2, concentration 40): 49%
% inhibition Apol 40' (DRC-2, concentration 80): 52%
% inhibition ApPOL 90' (DRC-2, concentration 2.5): 22%
% inhibition ApPOL 90' (DRC-2, concentration 5): 27%
% inhibition ApPOL 90' (DRC-2, concentration 40): 52%
% inhibition apPOL 180' (DRC-2, concentration 20): 39%
% inhibition apPOL 180' (DRC-2, concentration 40): 49%
% inhibition apPOL 180' (DRC-2, concentration 80): 52%
% inhibition Apo pol 5' 2.5 (DRC-2, read at 5', concentration 2.5): 20%
% inhibition Apo pol 5' 5 (DRC-2, read at 5', concentration 5): 20%
% inhibition Apo pol 5' 10 (DRC-2, read at 5', concentration 10): 24%
% inhibition Apo pol 5' 20 (DRC-2, read at 5', concentration 20): 29%
% inhibition Apo pol 5' 40 (DRC-2, read at 5', concentration 40): 38%
% inhibition Apo pol 5' 80 (DRC-2, read at 5', concentration 80): 39%
% inhibition Apol 40' 2.5 (DRC-2, read at 40', concentration 2.5): 22%
% inhibition Apol 40' 5 (DRC-2, read at 40', concentration 5): 27%
% inhibition Apol 40' 10 (DRC-2, read at 40', concentration 10): 34%
% inhibition Apol 40' 20 (DRC-2, read at 40', concentration 20): 40%
% inhibition Apol 40' 40 (DRC-2, read at 40', concentration 40): 49%
% inhibition Apol 40' 80 (DRC-2, read at 40', concentration 80): 52%
% inhibition ApPOL 90' 2.5 (DRC-2, read at 90', concentration 2.5): 22%
% inhibition ApPOL 90' 5 (DRC-2, read at 90', concentration 5): 27%
% inhibition ApPOL 90' 10 (DRC-2, read at 90', concentration 10): 36%
% inhibition ApPOL 90' 20 (DRC-2, read at 90', concentration 20): 43%
% inhibition ApPOL 90' 40 (DRC-2, read at 90', concentration 40): 52%
% inhibition ApPOL 90' 80 (DRC-2, read at 90', concentration 80): 55%
% inhibition apPOL 180' 2.5 (DRC-2, concentration 2.5): 15%
% inhibition apPOL 180' 5 (DRC-2, concentration 5): 21%
% inhibition apPOL 180' 10 (DRC-2, concentration 10): 31%
% inhibition apPOL 180' 20 (DRC-2, concentration 20): 39%
% inhibition apPOL 180' 40 (DRC-2, concentration 40): 49%
% inhibition apPOL 180' 80 (DRC-2, concentration 80): 52%
% inhibition Apo pol 10' (first dose-response, concentration 10): 52%
% inhibition Apo pol 10' (first dose-response, concentration 20): 58%
% inhibition Apo pol 10' [1]: 59%
% inhibition Apol 90' [1]: 59%
% inhibition apPOL 180' [1]: 58%

CCCCC(=O)N1CCc2c(nc3cc(-c4ccccc4Cl)[nH]n3c2=O)C1 [Molecule 37, CCCCC(=O)N1CCc2c(C1)nc1n(c2=O)[nH]c(c1)c1ccccc1Cl]
DNA Pol ("DNA Pol" of the 186 hits list (screen value)): 43
% inhibition Apo pol 10' (DRC-1, concentration 2.5): 9.306%
% inhibition Apo pol 10' (DRC-1, concentration 5): 24.2361%
% inhibition Apo pol 10' (DRC-1, concentration 10): 50.6318%
% inhibition Apo pol 10' (DRC-1, concentration 20): 65.8539%
% inhibition Apo pol 10' (DRC-1, concentration 40): 79.9976%
% inhibition Apo pol 10' (DRC-1, concentration 80): 82.2007%
% inhibition Apol 90' (DRC-1, concentration 2.5): 2.3506%
% inhibition Apol 90' (DRC-1, concentration 5): 13.0098%
% inhibition Apol 90' (DRC-1, concentration 10): 36.7881%
% inhibition Apol 90' (DRC-1, concentration 20): 53.1884%
% inhibition Apol 90' (DRC-1, concentration 40): 71.0429%
% inhibition Apol 90' (DRC-1, concentration 80): 81.0911%
% inhibition apPOL 180' (DRC-1, concentration 2.5): -3.183%
% inhibition apPOL 180' (DRC-1, concentration 5): 4.447%
% inhibition apPOL 180' (DRC-1, concentration 10): 22.1273%
% inhibition apPOL 180' (DRC-1, concentration 20): 36.1098%
% inhibition apPOL 180' (DRC-1, concentration 40): 57.5163%
% inhibition apPOL 180' (DRC-1, concentration 80): 72.7607%
% inhibition Apo pol 5' (DRC-2, concentration 2.5): 11%
% inhibition Apo pol 5' (DRC-2, concentration 5): 13%
% inhibition Apo pol 5' (DRC-2, concentration 10): 29%
% inhibition Apo pol 5' (DRC-2, concentration 20): 33%
% inhibition Apo pol 5' (DRC-2, concentration 40): 46%
% inhibition Apo pol 5' (DRC-2, concentration 80): 35%
% inhibition Apol 40' (DRC-2, concentration 2.5): 13%
% inhibition Apol 40' (DRC-2, concentration 5): 15%
% inhibition Apol 40' (DRC-2, concentration 10): 33%
% inhibition Apol 40' (DRC-2, concentration 20): 38%
% inhibition Apol 40' (DRC-2, concentration 40): 62%
% inhibition Apol 40' (DRC-2, concentration 80): 62%
% inhibition ApPOL 90' (DRC-2, concentration 2.5): 12%
% inhibition ApPOL 90' (DRC-2, concentration 5): 13%
% inhibition ApPOL 90' (DRC-2, concentration 10): 30%
% inhibition ApPOL 90' (DRC-2, concentration 20): 35%
% inhibition ApPOL 90' (DRC-2, concentration 40): 63%
% inhibition ApPOL 90' (DRC-2, concentration 80): 68%
% inhibition apPOL 180' (DRC-2, concentration 2.5): 7%
% inhibition apPOL 180' (DRC-2, concentration 5): 8.42%
% inhibition apPOL 180' (DRC-2, concentration 10): 23%
% inhibition apPOL 180' (DRC-2, concentration 20): 23%
% inhibition apPOL 180' (DRC-2, concentration 40): 55%
% inhibition apPOL 180' (DRC-2, concentration 80): 68%
DNA Pol (primary screen value, DNA Pol): 43
